Results: US20150223675A1, “LUMINAL ADMINISTRATION OF TAG MOLECULES FOR DIAGNOSTIC APPLICATIONS” (GIVEN IMAGING LTD., priority 2012, published 2015)
Several values for one entry are separate records, joined by “and”; a condition that tells them apart may be missing. Identical values can stand only once.

Legend:
[1] = test system: human colorectal tumors; test: Luminal (rectal, minicolonoscope) administration of dye to orthotopic mice; fluorescence of tumor and surrounding colon tissue by fluorescent camera, with histopathology; format: in vivo, mouse; conditions: for fluorescent labeling of tumor exposed to the colon lumen: tumor confirmed by histopathology
Procedure: Orthotopic mice with human colorectal tumors in their colons were used for […] administration of the IR-783 derivative—IR-783-S-PH-COOH. 4 μg of the IR-783-S-PH-COOH dissolved in 200 μl PBS were introduced into the colon of the mouse via minicolonoscope inserted through the rectum. The IR-783-S-PH-COOH solution was incubated in the colon for 20 minutes and then washed out with 5 ml PBS inserted through the rectum. Four hours later, mice were sacrificed and the fluorescence of the tumor and the surrounding colon tissue was measured by a fluorescent camera setup. Histopathological examination was performed on paraffin fixed colonic tissue specimens.
Orthotopic mice with human colorectal tumors in their colons were used for luminal administration of IR-783. 4 μg of IR-783 dissolved in 200 μl PBS were introduced into the colon of the mouse via a minicolonoscope inserted through the rectum. The IR-783 solution was incubated in the colon for 20 minutes and then washed out with 5 ml of PBS. 4 h later, the mice were sacrificed and the fluorescence of the tumor and the surrounding colon was measured by a fluorescent camera setup. Histopathological examination was performed on paraffin fixed colonic tissue specimens.

[2] = Gastric gavage of dye to mice; organ fluorescence (liver, spleen, heart, lungs, kidneys, brain) by fluorescent camera; format: in vivo; conditions: 5 hours later
Procedure: 4 μg of IR-783 dissolved in 200 μl PBS were introduced into mice stomach by gastric gavage. Five hours later, the mice were sacrificed and liver, spleen, heart, lungs, kidneys and brain were collected and measured for fluorescence by a fluorescent camera setup. […] Grey levels of the organs are indicated by the numbers on the fluorescent pictures next to the imaged organs, e.g., grey level in the liver was 4000 in two mice and 2500 in a third mouse, and grey levels in the kidneys were 3500, 200 and 1200, respectively.

[3] = test system: tumors; conditions: 24 hours after dye administration by injection; prior art; cited from earlier work
[4] = 4 μg in 200 μl PBS into colon, 20 min incubation, 4 h later
[5] = 4 μg in 200 μl PBS by gastric gavage, individual mice

Question: Which “fluorescent labeling of tumor exposed to the colon lumen” value [1, 4] does the source give for IR-783-S-PH-COOH here?
Answer: intensely labeled

Question: And the “tumor to background ratio” value ([1]; 4 μg in 200 μl PBS into colon, 20 min incubation, washed out, measured 4 h later, 1 second exposure, histopathologically confirmed tumor)?
Answer: 60

Question: What about the “fluorescent labeling of non-cancerous lymphatic tissue region” value ([1]; 4 μg into colon, 4 h later, suspected region with no tumor cells) of the same molecule?
Answer: not labeled

Question: Which results are given for `CC1(C)C(=CC=C2CCCC(C=CC3=[N+](CCCCS(=O)(=O)[O-])c4ccccc4C3(C)C)=C2Cl)N(CCCCS(=O)(=O)[O-])c2ccccc21.[Na+]` [IR-783]?
Answer: organs in which fluorescence was detected ([2]; 4 μg by gastric gavage, liver, spleen, heart, lungs, kidneys, brain examined): detected in the liver and kidneys; grey level in the liver [2, 5]: 4000 and 2500; grey levels in the kidneys [2, 5]: 3500 and 200 and 1200; fluorescent labeling of tumor exposed to the colon lumen [1, 4]: intensely labeled; fluorescent labeling of tumors developed below the murine mucosal layer (not exposed to colon lumen) ([1]; 4 μg into colon, 20 min incubation, 4 h later, FIG. 6B): not labeled; dye concentration in tumors compared to normal body tissue [3]: much higher in tumors
